Results on 28 compounds are retold here after ChEMBL document CHEMBL4033663, “Design, combinatorial synthesis and biological evaluations of novel 3-amino-1'-((1-aryl-1H-1,2,3-triazol-5-yl)methyl)-2'-oxospiro[benzo[a] pyrano[2,3-c]phenazine-1,3'-indoline]-2-carbonitrile antitumor hybrid molecules” (Eur J Med Chem, 2017).

Molecules are shown by their SMILES. pIC50: −log10 of the molar value.

The test system of experiment [1] is L02. As to the kind of experiment: Antiproliferative activity against human L02 cells after 48 hrs by MTT assay. The experiment is classed as cell-based. The settings on record: L02, 48 h. For orientation: Tetrazolium dyes change colour on reduction, which living cells bring about.
The subject of experiment [2] is A549. As to the kind of experiment: Antiproliferative activity against human A549 cells after 48 hrs by MTT assay. The experiment is classed as functional, cell-based. The settings on record: A549, 48 h.
For experiment [3], the system named is MCF7. As to the kind of experiment: Antiproliferative activity against human MCF7 cells after 48 hrs by MTT assay. The experiment is classed as functional, cell-based. The settings on record: MCF7, 48 h.
The subject of experiment [4] is HepG2. The experiment is described as follows: Antiproliferative activity against human HepG2 cells after 48 hrs by MTT assay. The experiment is classed as functional, cell-based. The note with it: HepG2, 48 h.
In experiment [5] the test system is HUVEC. The experiment is described as follows: Antiproliferative activity against human HUVEC cells after 48 hrs by MTT assay. The experiment is classed as cell-based.
Experiment [6] deals with HCT-116. As to the kind of experiment: Antiproliferative activity against human HCT116 cells after 48 hrs by MTT assay. The experiment is classed as functional, cell-based. The settings on record: HCT-116, 48 h.

Broadly, the pIC50 is the IC50 on a negative log10 scale, so that one unit is a factor of ten. As for `Cc1cc(C)cc(-n2nncc2CN2C(=O)C3(C(C#N)=C(N)Oc4c(N)cc5nc6ccccc6nc5c43)c3ccccc32)c1` (configuration not stated), the pIC50 was less than 4.30 in experiment [1]; 4.51 in experiment [2]; less than 4.30 in experiment [3]; less than 4.30 in experiment [4]; less than 4.30 in experiment [5]; less than 4.30 in experiment [6].

As for `CCOc1ccc(-n2nncc2CN2C(=O)C3(C(C#N)=C(N)Oc4c(N)cc5nc6ccccc6nc5c43)c3ccccc32)cc1` (configuration not stated), the negative logarithm of the IC50 (pIC50) in experiment [1] was less than 4.30; in experiment [2], less than 4.30; in experiment [3], 4.57; in experiment [4], less than 4.30; in experiment [5], less than 4.30; in experiment [6], less than 4.30.

Turning to `N#CC1=C(N)Oc2c(N)cc3nc4ccccc4nc3c2C12C(=O)N(Cc1cnnn1-c1ccc([N+](=O)[O-])cc1)c1ccccc12` (configuration not stated), the negative-log IC50 (pIC50) in experiment [1], in experiment [2], in experiment [3], in experiment [4], in experiment [5] and in experiment [6] was less than 4.30 in each case.

Turning to `N#CC1=C(N)Oc2c(N)cc3nc4ccccc4nc3c2C12C(=O)N(Cc1cnnn1-c1ccc(F)cc1)c1ccccc12` (configuration not stated), the negative logarithm of the IC50 (pIC50) in experiment [1], in experiment [2], in experiment [3], in experiment [4], in experiment [5] and in experiment [6] was less than 4.30 each time.

As to `Cc1ccccc1-n1nncc1CN1C(=O)C2(C(C#N)=C(N)Oc3c(N)cc4nc5ccccc5nc4c32)c2ccccc21` (configuration not stated), the pIC50 in experiment [1] is less than 4.30; in experiment [2], 4.50; in experiment [3], less than 4.30; in experiment [4] it was less than 4.30; in experiment [5], less than 4.30; in experiment [6] it was less than 4.30.

Regarding `COc1ccccc1-n1nncc1CN1C(=O)C2(C(C#N)=C(N)Oc3c2c2nc4ccccc4nc2c2ccccc32)c2ccccc21` (configuration not stated), the pIC50 in experiment [1], in experiment [2], in experiment [3], in experiment [4], in experiment [5] and in experiment [6] was less than 4.30 each time.

For `N#CC1=C(N)Oc2c(c3nc4ccccc4nc3c3ccccc23)C12C(=O)N(Cc1cnnn1-c1ccc(F)c(Cl)c1)c1ccccc12` (configuration not stated), the negative-log IC50 (pIC50) in experiment [1], in experiment [2], in experiment [3], in experiment [4], in experiment [5] and in experiment [6] was less than 4.30 each time.

Turning to `N#CC1=C(N)Oc2c(N)cc3nc4ccccc4nc3c2C12C(=O)N(Cc1cnnn1-c1cc(Cl)ccc1Cl)c1ccccc12` (configuration not stated), the pIC50 was less than 4.30 in experiment [1]; 4.96 in experiment [2]; 4.48 in experiment [3]; 4.48 in experiment [4]; less than 4.30 in experiment [5]; less than 4.30 in experiment [6].

As for `Cc1cccc(-n2nncc2CN2C(=O)C3(C(C#N)=C(N)Oc4c3c3nc5ccccc5nc3c3ccccc43)c3ccccc32)c1` (configuration not stated), the pIC50 in experiment [1] was less than 4.30; in experiment [2] it was 4.40; in experiment [3] it was less than 4.30; in experiment [4], less than 4.30; in experiment [5], less than 4.30; in experiment [6] it was less than 4.30.

For `CC[C@@]1(O)C(=O)OCc2c1cc1n(c2=O)Cc2cc3cc(O)ccc3nc2-1` [HYDROXYCAMPTOTHECIN], the pIC50 was 4.69 in experiment [1]; 5.55 in experiment [3]; 4.99 in experiment [4]; 4.74 in experiment [5]; 5.49 in experiment [6].

Turning to `N#CC1=C(N)Oc2c(N)cc3nc4ccccc4nc3c2C12C(=O)N(Cc1cnnn1-c1ccccc1Br)c1ccccc12` (configuration not stated), the pIC50 in experiment [1] was 4.53; in experiment [2], 4.56; in experiment [3], 4.51; in experiment [4] it was 4.42; in experiment [5], 4.47; in experiment [6], 4.91.

As for `CC(=O)Nc1ccc(-n2nncc2CN2C(=O)C3(C(C#N)=C(N)Oc4c(N)cc5nc6ccccc6nc5c43)c3ccccc32)cc1` (configuration not stated), the negative logarithm of the IC50 (pIC50) in experiment [1], in experiment [2], in experiment [3], in experiment [4], in experiment [5] and in experiment [6] was less than 4.30 in each case.

Turning to `CCOc1ccccc1-n1nncc1CN1C(=O)C2(C(C#N)=C(N)Oc3c(N)cc4nc5ccccc5nc4c32)c2ccccc21` (configuration not stated), the negative-log IC50 (pIC50) in experiment [1] was less than 4.30; in experiment [2], less than 4.30; in experiment [3], less than 4.30; in experiment [4], 4.52; in experiment [5] it was less than 4.30; in experiment [6] it was less than 4.30.

Take `N#CC1=C(N)Oc2c(N)cc3nc4ccccc4nc3c2C12C(=O)N(Cc1cnnn1-c1cccc(Br)c1)c1ccccc12` (configuration not stated): the negative logarithm of the IC50 (pIC50) in experiment [1] was less than 4.30; in experiment [2], 4.72; in experiment [3], less than 4.30; in experiment [4], less than 4.30; in experiment [5] it was less than 4.30; in experiment [6], 4.58.

Regarding `Cc1ccc(Cl)cc1-n1nncc1CN1C(=O)C2(C(C#N)=C(N)Oc3c2c2nc4ccccc4nc2c2ccccc32)c2ccccc21` (configuration not stated), the negative-log IC50 (pIC50) in experiment [1], in experiment [2], in experiment [3], in experiment [4], in experiment [5] and in experiment [6] was less than 4.30 throughout.

Regarding `COc1ccccc1-n1nncc1CN1C(=O)C2(C(C#N)=C(N)Oc3c(N)cc4nc5ccccc5nc4c32)c2ccccc21` (configuration not stated), the negative logarithm of the IC50 (pIC50) in experiment [1] was less than 4.30; in experiment [2], 4.43; in experiment [3], 4.54; in experiment [4], less than 4.30; in experiment [5], less than 4.30; in experiment [6], less than 4.30.

Consider `N#CC1=C(N)Oc2c(c3nc4ccccc4nc3c3ccccc23)C12C(=O)N(Cc1cnnn1-c1ccc(N)cc1)c1ccccc12` (configuration not stated), for which the negative-log IC50 (pIC50) is less than 4.30 in experiment [1]; less than 4.30 in experiment [2]; less than 4.30 in experiment [3]; less than 4.30 in experiment [4]; less than 4.30 in experiment [5]; 4.34 in experiment [6].

For `N#CC1=C(N)Oc2c(N)cc3nc4ccccc4nc3c2C12C(=O)N(Cc1cnnn1-c1ccc(Cl)cc1)c1ccccc12` (configuration not stated), the pIC50 in experiment [1], in experiment [2], in experiment [3], in experiment [4], in experiment [5] and in experiment [6] was less than 4.30 each time.

As to `CCOc1ccccc1-n1nncc1CN1C(=O)C2(C(C#N)=C(N)Oc3c2c2nc4ccccc4nc2c2ccccc32)c2ccccc21` (configuration not stated), the negative logarithm of the IC50 (pIC50) in experiment [1], in experiment [2], in experiment [3], in experiment [4], in experiment [5] and in experiment [6] was less than 4.30 in each case.

Consider `N#CC1=C(N)Oc2c(c3nc4ccccc4nc3c3ccccc23)C12C(=O)N(Cc1cnnn1-c1cccc(S(N)(=O)=O)c1)c1ccccc12` (configuration not stated), for which the pIC50 in experiment [1] was less than 4.30; in experiment [2], 4.35; in experiment [3] it was 4.37; in experiment [4] it was 4.67; in experiment [5] it was 4.41; in experiment [6], 4.95.

Consider `Cc1ccc(-n2nncc2CN2C(=O)C3(C(C#N)=C(N)Oc4c(N)cc5nc6ccccc6nc5c43)c3ccccc32)cc1Cl` (configuration not stated), for which the pIC50 is less than 4.30 in experiment [1]; 4.93 in experiment [2]; less than 4.30 in experiment [3]; less than 4.30 in experiment [4]; less than 4.30 in experiment [5]; less than 4.30 in experiment [6].

For `Cc1ccc(-n2nncc2CN2C(=O)C3(C(C#N)=C(N)Oc4c3c3nc5ccccc5nc3c3ccccc43)c3ccccc32)cc1Cl` (configuration not stated), the pIC50 in experiment [1], in experiment [2], in experiment [3], in experiment [4], in experiment [5] and in experiment [6] was less than 4.30 throughout.

With `N#CC1=C(N)Oc2c(c3nc4ccccc4nc3c3ccccc23)C12C(=O)N(Cc1cnnn1-c1ccc([N+](=O)[O-])cc1)c1ccccc12` (configuration not stated), the pIC50 in experiment [1], in experiment [2], in experiment [3], in experiment [4], in experiment [5] and in experiment [6] was less than 4.30 throughout.

Take `Cc1ccc(Cl)cc1-n1nncc1CN1C(=O)C2(C(C#N)=C(N)Oc3c(N)cc4nc5ccccc5nc4c32)c2ccccc21` (configuration not stated): the negative logarithm of the IC50 (pIC50) in experiment [1] is less than 4.30; in experiment [2] it was less than 4.30; in experiment [3], 4.36; in experiment [4], 4.76; in experiment [5] it was less than 4.30; in experiment [6] it was 4.43.

For the compound `Cc1ccc(C)c(-n2nncc2CN2C(=O)C3(C(C#N)=C(N)Oc4c3c3nc5ccccc5nc3c3ccccc43)c3ccccc32)c1` (configuration not stated), the pIC50 in experiment [1], in experiment [2], in experiment [3], in experiment [4], in experiment [5] and in experiment [6] was less than 4.30 each time.

For `Cc1ccc(C)c(-n2nncc2CN2C(=O)C3(C(C#N)=C(N)Oc4c(N)cc5nc6ccccc6nc5c43)c3ccccc32)c1` (configuration not stated), the pIC50 in experiment [1], in experiment [2], in experiment [3], in experiment [4], in experiment [5] and in experiment [6] was less than 4.30 in each case.

Consider `N#CC1=C(N)Oc2c(N)cc3nc4ccccc4nc3c2C12C(=O)N(Cc1cnnn1-c1ccc(Cl)cc1Cl)c1ccccc12` (configuration not stated), for which the negative logarithm of the IC50 (pIC50) in experiment [1], in experiment [2], in experiment [3], in experiment [4], in experiment [5] and in experiment [6] was less than 4.30 each time.

Take `Cc1cc(C)cc(-n2nncc2CN2C(=O)C3(C(C#N)=C(N)Oc4c3c3nc5ccccc5nc3c3ccccc43)c3ccccc32)c1` (configuration not stated): the negative-log IC50 (pIC50) in experiment [1], in experiment [2], in experiment [3], in experiment [4], in experiment [5] and in experiment [6] was less than 4.30 throughout.
